Among the test systems are LOX IMVI melanoma; NCI-H23 lung; OVCAR-4 ovarian; MOLT-4 leukemia; SK-MEL-2 melanoma; OVCAR-3 ovarian; MALME-3M melanoma; MDA-MB-435; NCI-H226 lung; HOP-92 NSCLC.
Common to all, as to assay: inhibition of tumour cell growth, NCI panel, 48 h

Several values for one entry are separate records, joined by “and”; a condition that tells them apart may be missing. Equal values may be shown once.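 Five compound concentrations were applied to cells in 96-well plates for 48 hours; endpoints were derived by simple linear interpolation of the resulting dose-response curve. GI50 is the concentration that inhibits growth by half. TGI: total growth inhibition.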 Bounds are passed on as bounds.

As to `C/C=C(\C)C(=O)O[C@@H]1C=CC(=O)O[C@H]1CNC(=O)[C@H](C)O`, the GI50 is 15.9 µM in the assay with LOX IMVI melanoma; 25.6 µM in the assay on NCI-H23 lung; 19 µM with OVCAR-4 ovarian; 20 µM in the assay on SK-MEL-2 melanoma; 17.4 µM in the assay on OVCAR-3 ovarian; 15 µM with MALME-3M melanoma. Further, the GI50 is 22.6 µM in the assay on MDA-MB-435, 28.9 µM in the assay on NCI-H226 lung and 17.4 µM in the assay on HOP-92 NSCLC. In addition, the TGI was 31.3 µM in the assay on LOX IMVI melanoma; over 75.4 µM in the assay on NCI-H23 lung; 42.9 µM in the assay on OVCAR-4 ovarian; 5.35 µM with MOLT-4 leukemia; 48.5 µM with SK-MEL-2 melanoma; 37.8 µM in the assay on OVCAR-3 ovarian. For the same molecule, the TGI was 32.8 µM in the assay on MALME-3M melanoma, 82.1 µM with MDA-MB-435, over 81.4 µM with NCI-H226 lung and 37.5 µM in the assay with HOP-92 NSCLC.
For `c1ccc(/C(=N\Nc2nc3ccccc3s2)c2ccccn2)cc1`, the TGI in the assay on LOX IMVI melanoma is 42.4 µM; in the assay with NCI-H23 lung, over 100 µM; with OVCAR-4 ovarian it was over 100 µM; in the assay on MOLT-4 leukemia, 4.17 µM; with SK-MEL-2 melanoma, over 61.8 µM; in the assay with OVCAR-3 ovarian, 1.72 µM. The TGI was 34.4 µM in the assay with MALME-3M melanoma, over 100 µM with MDA-MB-435, 29.7 µM with NCI-H226 lung and over 71.6 µM in the assay with HOP-92 NSCLC.
On to `COc1ccc(-c2nnc(Nc3nc(O)c(C4=c5cc(Br)ccc5=NC4=O)s3)o2)cc1`, for which the GI50 in the assay on LOX IMVI melanoma is 19.8 µM; in the assay on NCI-H23 lung, 23.6 µM; in the assay on OVCAR-4 ovarian, 27.5 µM; with MOLT-4 leukemia, 3.51 µM; in the assay with SK-MEL-2 melanoma it was 17.3 µM; in the assay with OVCAR-3 ovarian it was 15.5 µM. Moreover, the GI50 in the assay with MDA-MB-435 was 23.8 µM; in the assay with NCI-H226 lung it was 1.02 µM; with HOP-92 NSCLC, 21.2 µM. Also, the TGI in the assay on LOX IMVI melanoma was 62 µM; in the assay on NCI-H23 lung, over 69.3 µM; in the assay with OVCAR-4 ovarian, over 100 µM; in the assay on MOLT-4 leukemia, 27.6 µM; in the assay with SK-MEL-2 melanoma, 48.8 µM; with OVCAR-3 ovarian, 40.3 µM. Also, the TGI in the assay with MALME-3M melanoma came to 3.53 µM; in the assay on MDA-MB-435, 57.7 µM; in the assay on NCI-H226 lung it was 8.35 µM; with HOP-92 NSCLC, 65.6 µM.
With `CCN(CC)CCCNc1cc(OC)c(OC)c2cccnc12`, the GI50 with LOX IMVI melanoma is 2.22 µM; in the assay with NCI-H23 lung, 1.85 µM; in the assay with OVCAR-4 ovarian it was 1.68 µM; in the assay with MOLT-4 leukemia, 3.27 µM; in the assay with SK-MEL-2 melanoma, 14.5 µM; in the assay on OVCAR-3 ovarian, 2.19 µM. For the same molecule, the GI50 in the assay with MALME-3M melanoma was 12.8 µM; in the assay on MDA-MB-435 it was 3.05 µM; with NCI-H226 lung, 15.2 µM; in the assay with HOP-92 NSCLC it was 28.4 µM. The TGI in the assay with LOX IMVI melanoma was 34.4 µM; in the assay on NCI-H23 lung it was 26.1 µM; in the assay with OVCAR-4 ovarian, 3.18 µM; in the assay with MOLT-4 leukemia it was 8.88 µM; in the assay with SK-MEL-2 melanoma, 42.8 µM; in the assay with OVCAR-3 ovarian, 5.13 µM. The TGI was found to be 31.1 µM in the assay on MALME-3M melanoma, 14.4 µM in the assay with MDA-MB-435, 37.7 µM with NCI-H226 lung and 62.8 µM in the assay with HOP-92 NSCLC.
Consider `CCOC(=O)CCSC1=CC(=O)c2nc3ccccc3c3ccnc1c23`, for which the GI50 is 27 µM with LOX IMVI melanoma; 16.3 µM with NCI-H23 lung; 15.2 µM in the assay with OVCAR-4 ovarian; 7.31 µM in the assay on MOLT-4 leukemia; 26.8 µM with SK-MEL-2 melanoma; 12.6 µM with OVCAR-3 ovarian. Further, the GI50 in the assay with MALME-3M melanoma is 17.5 µM; in the assay with MDA-MB-435 it was 17.8 µM; in the assay with NCI-H226 lung, 21.8 µM; in the assay on HOP-92 NSCLC, 25.8 µM. The TGI is over 100 µM in the assay on LOX IMVI melanoma; 43.3 µM with NCI-H23 lung; 31.7 µM with OVCAR-4 ovarian; over 100 µM in the assay with MOLT-4 leukemia; 72.8 µM in the assay on SK-MEL-2 melanoma; 37 µM in the assay with OVCAR-3 ovarian. Further, the TGI with MALME-3M melanoma came to 35.4 µM; in the assay on MDA-MB-435 it was 37.7 µM; with NCI-H226 lung it was 73.8 µM; in the assay with HOP-92 NSCLC, 62.6 µM.
Regarding `O=C(Nc1cc2cc([N+](=O)[O-])ccc2oc1=O)c1cccs1`, the TGI in the assay on LOX IMVI melanoma, with OVCAR-4 ovarian, in the assay with MOLT-4 leukemia, in the assay with SK-MEL-2 melanoma, in the assay on OVCAR-3 ovarian and with MALME-3M melanoma was over 100 µM each time. Further, the TGI in the assay with MDA-MB-435 is 70.8 µM; in the assay on NCI-H226 lung, over 100 µM; with HOP-92 NSCLC, over 100 µM.
Take `NCCCNc1nc2ccccc2c2c(=O)c3cc(F)cc(Cl)c3sc12`: the GI50 is 1.68 µM in the assay with LOX IMVI melanoma; 1.56 µM in the assay on NCI-H23 lung; 1.82 µM in the assay on OVCAR-4 ovarian; 1.78 µM with MOLT-4 leukemia; 8.86 µM with SK-MEL-2 melanoma; 1.78 µM with OVCAR-3 ovarian. The GI50 in the assay on MALME-3M melanoma is 1.68 µM; in the assay on MDA-MB-435 it was 1.66 µM; in the assay on NCI-H226 lung, 6.37 µM; in the assay with HOP-92 NSCLC, 1.87 µM. The TGI with LOX IMVI melanoma came to 3.14 µM; in the assay on NCI-H23 lung it was 3.07 µM; in the assay on OVCAR-4 ovarian, 3.63 µM; with MOLT-4 leukemia it was 3.77 µM; in the assay on SK-MEL-2 melanoma it was 24 µM; with OVCAR-3 ovarian, 3.25 µM. The TGI in the assay on MALME-3M melanoma was found to be 3.32 µM; in the assay on MDA-MB-435, 3.04 µM; in the assay with NCI-H226 lung, 23.7 µM; in the assay on HOP-92 NSCLC, 11.8 µM.
As for `NC(Cc1c[nH]c2cccc(F)c12)C(=O)O` (centres undefined), the GI50 in the assay on LOX IMVI melanoma is 51.6 µM and 211 µM; in the assay on MOLT-4 leukemia, 41.7 µM and 338 µM; with OVCAR-3 ovarian it was 39.6 µM and 237 µM; with MALME-3M melanoma, 2600 µM; in the assay on MDA-MB-435, 50.9 µM and 189 µM; with NCI-H226 lung, 3210 µM. Also, the GI50 in the assay on HOP-92 NSCLC was 4110 µM. Also, the TGI with LOX IMVI melanoma is 982 µM; with NCI-H23 lung, 3180 µM; in the assay with OVCAR-4 ovarian it was over 4500 µM; in the assay with MOLT-4 leukemia it was over 4500 µM; in the assay with SK-MEL-2 melanoma it was over 4500 µM; in the assay with OVCAR-3 ovarian it was 967 µM. Besides, the TGI with MALME-3M melanoma, with MDA-MB-435, in the assay with NCI-H226 lung and with HOP-92 NSCLC was over 4500 µM throughout.

Source of the values: PubChem BioAssay (NCI).
